Measurements published in ChEMBL document CHEMBL1201862, “PubChem BioAssay data set” (2004).
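96-well plates; 48 h exposure; 5 concentrations. Endpoints by linear interpolation between flanking doses. Not reached: highest tested concentration assigned. GI50 = concentration required for 50% inhibition of growth.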 Activity calls are given as the source filed them. Rule as the data show it: active = GI50 up to about 1.1 µM and inactive = higher.

Columns and labels:
Assay in all cases: NCI-60 cell line screen, 48 h
OVCAR-3 = system: OVCAR-3
RXF 393 = system: RXF 393
OVCAR-8 = system: OVCAR-8
HOP-92 = system: HOP-92
OVCAR-5 = system: OVCAR-5
HOP-62 = system: HOP-62
OVCAR-4 = system: OVCAR-4
SW-620 = system: SW-620
SNB-19 = system: SNB-19
SK-MEL-2 = system: SK-MEL-2
MOLT-4 = system: MOLT-4
NCI-H460 = system: NCI-H460
ACHN = system: ACHN
A549 = system: A549
SNB-75 = system: SNB-75
UACC-62 = system: UACC-62
SN12C = system: SN12C
NCI-H522 = system: NCI-H522
HCT-116 = system: HCT-116
KM12 = system: KM12

SMILES	GI50 (OVCAR-3)	GI50 (RXF 393)	GI50 (OVCAR-8)	GI50 (HOP-92)	GI50 (OVCAR-5)	GI50 (HOP-62)	GI50 (OVCAR-4)	GI50 (SW-620)	GI50 (SNB-19)	GI50 (SK-MEL-2)	GI50 (MOLT-4)	GI50 (NCI-H460)	GI50 (ACHN)	GI50 (A549)	GI50 (SNB-75)	GI50 (UACC-62)	GI50 (SN12C)	GI50 (NCI-H522)	GI50 (HCT-116)	GI50 (KM12)
COC1O[C@H]2CCN(C(=O)OCc3ccccc3)[C@H]2[C@H]1OCc1ccccc1 (some centres not stated)	42.6 µM (inactive)	50 µM (inactive)	69.7 µM (inactive)	26.6 µM (inactive)	> 100 µM (inactive)	> 100 µM (inactive)	> 62.4 µM (inactive)	50.2 µM (inactive)	89.3 µM (inactive)	29.8 µM (inactive)	36 µM (inactive)	44.3 µM (inactive)	39.6 µM (inactive)	4.33 µM (inactive)	41.9 µM (inactive)	21.5 µM (inactive)	> 100 µM (inactive)	37.6 µM (inactive)	46.6 µM (inactive)	
S=c1c2nc[nH]c2ncn1CCSC1=NC=NC2=NC=NC21 (configuration not stated)	57.1 µM (inactive)	> 100 µM (inactive)	> 100 µM (inactive)	> 80 µM (inactive)	> 100 µM (inactive)	66.1 µM (inactive)	> 87.3 µM (inactive)	> 100 µM (inactive)	> 100 µM (inactive)	> 100 µM (inactive)	70.5 µM (inactive)	> 100 µM (inactive)	> 100 µM (inactive)	> 100 µM (inactive)	> 66.1 µM (inactive)	79.8 µM (inactive)	> 100 µM (inactive)	> 73.6 µM (inactive)	> 100 µM (inactive)	76.2 µM (inactive)
C/C(=N\NC(=O)c1ccncc1)c1sc(-n2nc(-c3ccccc3)cc2-c2ccccc2)nc1C	25.1 µM (inactive)	> 31.6 µM (inactive)	> 100 µM (inactive)	> 31.6 µM (inactive)	> 31.6 µM (inactive)	> 31.6 µM (inactive)	> 31.6 µM (inactive)	> 31.6 µM (inactive)	> 31.6 µM (inactive)	> 31.6 µM (inactive)	17.1 µM (inactive)	> 31.6 µM (inactive)	> 31.6 µM (inactive)	> 31.6 µM (inactive)	> 37.2 µM (inactive)	> 31.6 µM (inactive)	> 100 µM (inactive)	> 35.7 µM (inactive)	> 31.6 µM (inactive)	99.5 µM (inactive)
CN(C)CN1C(=O)/C(=N\n2c(S)nnc2-c2ccncc2)c2ccccc21	66.5 µM (inactive)	17 µM (inactive)	23.7 µM (inactive)	76.9 µM (inactive)	> 100 µM (inactive)	24.8 µM (inactive)	17.1 µM (inactive)	18.8 µM (inactive)	54.5 µM (inactive)	21.4 µM (inactive)	12.1 µM (inactive)	38.3 µM (inactive)	48.1 µM (inactive)	55 µM (inactive)	38.5 µM (inactive)	42.4 µM (inactive)	35.2 µM (inactive)	16.6 µM (inactive)	34 µM (inactive)	43.7 µM (inactive)
COc1cc(C2C(C(=O)Nc3ccccc3C)=C(C)NC(C)=C2C(=O)Nc2ccccc2C)ccc1O	> 100 µM (inactive)	> 100 µM (inactive)	> 100 µM (inactive)	> 100 µM (inactive)	> 100 µM (inactive)	> 100 µM (inactive)	> 100 µM (inactive)	> 100 µM (inactive)	> 100 µM (inactive)	> 100 µM (inactive)	60.7 µM (inactive)	> 100 µM (inactive)	> 100 µM (inactive)	> 100 µM (inactive)	56.6 µM (inactive)	> 100 µM (inactive)	> 100 µM (inactive)	> 100 µM (inactive)	> 100 µM (inactive)	> 100 µM (inactive)
CCCCNC(=O)OCCN=C1c2ccccc2C(Br)C(Br)c2ccccc21 (configuration not stated)	19.9 µM (inactive)	14.3 µM (inactive)	27.6 µM (inactive)	4.46 µM (inactive)	> 100 µM (inactive)	25.9 µM (inactive)	23.8 µM (inactive)	40.2 µM (inactive)	24.9 µM (inactive)	42.9 µM (inactive)	24.9 µM (inactive)	54.6 µM (inactive)	24.2 µM (inactive)	83.9 µM (inactive)	30.5 µM (inactive)	> 100 µM (inactive)	32.9 µM (inactive)	22.2 µM (inactive)	23.3 µM (inactive)	45.6 µM (inactive)
C/C(=N/NC(=O)c1ccccc1S(N)(=O)=O)C(CN1CCCCC1)C(C1=C(O)C2C=CC=CC2OC1=O)c1ccccc1 (configuration not stated)	41.6 µM (inactive)	28.4 µM (inactive)	> 100 µM (inactive)	14 µM (inactive)	> 100 µM (inactive)	> 100 µM (inactive)	67.1 µM (inactive)	31.8 µM (inactive)	87.7 µM (inactive)	59.2 µM (inactive)		77.4 µM (inactive)	61.7 µM (inactive)	91.2 µM (inactive)	> 100 µM (inactive)	82.6 µM (inactive)	78.7 µM (inactive)	52.7 µM (inactive)	> 100 µM (inactive)	97.3 µM (inactive)
CC1(O)C=CC(=O)C=C1	24.2 µM (inactive)	21.6 µM (inactive)	25.3 µM (inactive)	> 100 µM (inactive)	98.2 µM (inactive)	> 52.6 µM (inactive)	40.9 µM (inactive)	59.2 µM (inactive)	25.7 µM (inactive)	24.7 µM (inactive)	19.2 µM (inactive)	20.3 µM (inactive)	27.5 µM (inactive)	> 76.4 µM (inactive)	> 56.1 µM (inactive)	18.5 µM (inactive)	52.7 µM (inactive)	18.6 µM (inactive)	60.1 µM (inactive)	> 48.2 µM (inactive)
COc1cccc(C(=O)C#Cc2cnc(OC)nc2OC)c1	1.81 µM (inactive)	0.331 µM (active)	1.7 µM (inactive)	2.09 µM (inactive)	2.91 µM (inactive)	13.5 µM (inactive)	2.36 µM (inactive)	0.504 µM (active)	15.8 µM (inactive)	1.8 µM (inactive)	0.155 µM (active)	9.08 µM (inactive)	1.73 µM (inactive)	4.82 µM (inactive)	2.26 µM (inactive)	1.36 µM (inactive)	0.753 µM (active)	0.226 µM (active)	3.18 µM (inactive)	3.94 µM (inactive)
CCCCCCCCCCCCCCCCP(=O)([O-])OCC[N+](C)(C)C	17.1 µM (inactive)	3.93 µM (inactive)	16.9 µM (inactive)	15 µM (inactive)	8.55 µM (inactive)	15.2 µM (inactive)	19.1 µM (inactive)	14.5 µM (inactive)	30 µM (inactive)	15.1 µM (inactive)	17.2 µM (inactive)	5.75 µM (inactive)	16.5 µM (inactive)	18.1 µM (inactive)	14.8 µM (inactive)	13.9 µM (inactive)	12.9 µM (inactive)	22.6 µM (inactive)	14.8 µM (inactive)	2.61 µM (inactive)
CC1=NN(C(=O)c2ccccc2O)C(=O)/C1=C/c1ccc(O)cc1	0.278 µM (active)	0.0601 µM (active)	0.358 µM (active)	0.218 µM (active)	7.96 µM (inactive)	0.662 µM (active)	1.48 µM (inactive)	2.73 µM (inactive)	0.363 µM (active)	2.13 µM (inactive)	0.711 µM (active)	0.255 µM (active)	0.204 µM (active)	0.291 µM (active)	0.23 µM (active)	0.34 µM (active)	1.62 µM (inactive)	0.807 µM (active)	0.209 µM (active)	0.298 µM (active)
CCOC(=O)/C=C(\C(=O)OCC)n1ccc(=O)n(Cc2cnnn2CCCCOC(C)=O)c1=O	5.3 µM (inactive)	0.697 µM (active)	5.08 µM (inactive)	2.57 µM (inactive)	12.4 µM (inactive)	19.7 µM (inactive)	12.3 µM (inactive)	2.05 µM (inactive)	1.57 µM (inactive)	14.7 µM (inactive)	2.49 µM (inactive)	8.53 µM (inactive)	1.83 µM (inactive)	19.9 µM (inactive)	14 µM (inactive)	6.14 µM (inactive)	10.4 µM (inactive)	1.53 µM (inactive)	6.21 µM (inactive)	15.9 µM (inactive)
COc1ccc(/C=C(\C2=NC(=O)CS2)c2nc3ccccc3[nH]2)cc1	22 µM (inactive)	3.13 µM (inactive)	46.8 µM (inactive)	80.2 µM (inactive)	41.8 µM (inactive)	32.1 µM (inactive)	> 100 µM (inactive)	> 100 µM (inactive)	> 100 µM (inactive)	24 µM (inactive)	54.8 µM (inactive)	38.9 µM (inactive)	37.6 µM (inactive)	> 100 µM (inactive)	28.1 µM (inactive)	> 100 µM (inactive)	52.4 µM (inactive)	16.5 µM (inactive)	85.1 µM (inactive)	35.2 µM (inactive)
COC(=O)c1cc2c3c(cc(N(C)C)c2[nH]1)N(C(=O)c1cc2cc(OC)c(OC)c(OC)c2[nH]1)CC3CCl (configuration not stated)	0.00396 µM (active)	< 0.0025 µM (active)		0.0041 µM (active)	0.00776 µM (active)	0.00262 µM (active)	0.00745 µM (active)	< 0.0025 µM (active)	0.00775 µM (active)	0.00762 µM (active)	< 0.0025 µM (active)	0.00252 µM (active)	< 0.0025 µM (active)	0.00292 µM (active)	0.0042 µM (active)	0.00558 µM (active)	0.0114 µM (active)	0.00279 µM (active)	< 0.0025 µM (active)	0.00267 µM (active)
